{
  "source": "ChEMBL document CHEMBL1133489",
  "about": "“Synthesis of FF-MAS from lithocholic acid” (Bioorg Med Chem Lett, 2000)",
  "organism": "Mus musculus",
  "assay": "Compound was evaluated for meiosis inducing effect on immature mouse oocytes; Positive",
  "format": "functional",
  "data": [
    {"smiles": "CC(C)=CCC[C@@H](C)[C@H]1CC=C2C3=C(CC[C@@]21C)[C@@]1(C)CC[C@H](O)C(C)(C)[C@@H]1CC3", "values": [
      {"measurement": "Activity", "value": "Positive"}
    ]}
  ]
}
